According to patent publication US12227498B2, “Heterocyclic amine derivative and pharmaceutical composition comprising same” (Daewoong Pharmaceutical Co., Ltd., priority 2018, dated 2025):

Tests used:
ITK = biological target: T1, ITK (Homo sapiens, UniProt Q08881); assay: Inhibitory activity against ITK, ADP-Glo + ITK Kinase enzyme system kit (Promega); type: biochemical; conditions: ITK enzyme 0.4 ng/μl; 15 min preincubation at room temperature; 1 hour at 30° C.; luminescence; duplicate
T1 construct: purchased Promega Corporation
T1 sequence (Q08881 1-620): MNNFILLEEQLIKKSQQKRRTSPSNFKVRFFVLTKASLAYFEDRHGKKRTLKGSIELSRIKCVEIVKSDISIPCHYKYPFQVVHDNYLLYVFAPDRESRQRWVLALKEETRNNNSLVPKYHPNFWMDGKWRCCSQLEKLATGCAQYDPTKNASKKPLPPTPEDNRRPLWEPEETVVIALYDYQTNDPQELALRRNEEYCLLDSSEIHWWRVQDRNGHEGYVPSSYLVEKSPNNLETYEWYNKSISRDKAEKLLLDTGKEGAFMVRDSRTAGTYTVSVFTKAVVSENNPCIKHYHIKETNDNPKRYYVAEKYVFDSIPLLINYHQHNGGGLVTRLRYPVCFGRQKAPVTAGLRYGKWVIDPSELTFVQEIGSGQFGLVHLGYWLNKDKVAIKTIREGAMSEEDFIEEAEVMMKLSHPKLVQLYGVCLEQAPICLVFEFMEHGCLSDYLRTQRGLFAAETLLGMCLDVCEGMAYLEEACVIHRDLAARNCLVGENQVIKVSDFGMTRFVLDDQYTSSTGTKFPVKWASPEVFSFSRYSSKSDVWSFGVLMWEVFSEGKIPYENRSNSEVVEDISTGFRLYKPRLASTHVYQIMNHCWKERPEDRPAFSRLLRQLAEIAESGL
Procedure: (§1) Inhibitory activities against BTK and ITK were measured for the compounds prepared in the above Examples as follows.
The inhibitory activity against ITK was evaluated using ‘ADP-Glo™+ITK Kinase enzyme system’ kit (Promega Corporation). […] To the plate on which reactions were completed, 5 μl of substrate and 5 μl of ATP prepared so as to have a final concentration of […] were added and then allowed to react at 30° C. for 1 hour. All wells of the plate were treated with 25 μl of ADP-Glo™ reagent and then allowed to react at 30° C. for 40 minutes. After that, all wells were treated with 50 μl of kinase detection buffer, and then allowed to react at 30° C. for 30 minutes under light shielding conditions. For the plate on which all reactions were completed, luminescence was measured and the results were calculated. Evaluation was carried out in duplicate, and negative control and positive control were calculated depending on whether or not the enzyme was added without treatment of the compound. The IC50 was calculated based on the calculated values.

BTK = biological target: T2, BTK (Homo sapiens, UniProt Q06187); assay: Inhibitory activity against BTK, ADP-Glo + BTK Kinase enzyme system kit (Promega); type: biochemical; conditions: BTK enzyme 1 ng/μl; ATP 10 µM; 15 min preincubation at room temperature; 1 hour at 30° C.; luminescence; duplicate
T2 construct: purchased Promega Corporation
Procedure: as §1
The inhibitory activities against BTK were evaluated using ‘ADP-Glo™+BTK Kinase enzyme system’ kit (Promega Corporation). […] 5 μl of substrate and 5 μl of ATP prepared so as to have a final concentration of 10 µM were added to the plate on which reactions were completed, and then allowed to react at 30° C. for 1 hour. All wells of the plate were treated with 25 μl of ADP-Glo™ reagent and allowed to react at 30° C. for 40 minutes. After that, all wells were treated with 50 μl of kinase detection buffer, and then reacted at 30° C. for 30 minutes under light shielding conditions. For the plate on which all reactions were completed, luminescence was measured and the results were calculated. Evaluation was carried out in duplicate, and negative control and positive control were calculated depending on whether or not the enzyme was added without treatment of the compound. The IC50 was calculated based on the calculated values.

T2 sequence (Q06187 whole entry): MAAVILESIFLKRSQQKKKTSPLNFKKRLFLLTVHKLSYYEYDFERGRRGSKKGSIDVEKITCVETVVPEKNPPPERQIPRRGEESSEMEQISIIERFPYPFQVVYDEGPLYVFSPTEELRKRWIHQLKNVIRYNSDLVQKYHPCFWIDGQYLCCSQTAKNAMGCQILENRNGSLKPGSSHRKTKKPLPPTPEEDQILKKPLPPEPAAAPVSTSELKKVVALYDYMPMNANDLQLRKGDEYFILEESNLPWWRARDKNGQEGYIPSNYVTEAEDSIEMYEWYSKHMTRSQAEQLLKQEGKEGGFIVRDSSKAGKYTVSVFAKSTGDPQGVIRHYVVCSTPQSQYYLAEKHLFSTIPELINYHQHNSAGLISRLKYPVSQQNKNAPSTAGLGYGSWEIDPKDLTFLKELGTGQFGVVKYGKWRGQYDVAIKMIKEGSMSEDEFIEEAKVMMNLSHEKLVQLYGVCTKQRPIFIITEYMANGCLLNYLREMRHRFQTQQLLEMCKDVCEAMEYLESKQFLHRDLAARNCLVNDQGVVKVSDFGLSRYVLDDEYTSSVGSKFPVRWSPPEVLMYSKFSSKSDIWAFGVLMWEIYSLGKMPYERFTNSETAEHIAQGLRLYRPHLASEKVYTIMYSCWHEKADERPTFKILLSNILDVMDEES

Row | SMILES | IC50 (ITK) | IC50 (BTK)
1 | C=CC(=O)N1CCC(Nc2cc(CN3CCOCC3)nc(Nc3ncc(C)s3)n2)C1 (stereo not shown) [Example 8, 1-(3-((2-((5-methylthiazol-2-yl)amino)-6-(morpholinomethyl)pyrimidin-4-yl)amino)pyrrolidin-1-yl) prop-2-en-1-one] | 71.7 nM | 72.5 nM
2 | C=CC(=O)N1CCC[C@H](Nc2cc(CN3CCN(C)CC3)cc(Nc3ncc(C)s3)n2)C1 [Example 43] | 2.1 nM | 1.6 nM
3 | CC#CC(=O)N1CCC(Nc2cc(CN3CCOCC3)cc(Nc3ncc(C)s3)n2)C1 (stereo not shown) [Example 14, 1-(3-((6-((5-methylthiazol-2-yl)amino)-4-(morpholinomethyl)pyridin-2-yl)amino)pyrrolidin-1-yl) but-2-yn-1-one] | 49.1 nM | 3.3 nM
4 | C=CC(=O)N1CCC[C@H](Nc2cc(CN3CCN(CCC#N)CC3)cc(Nc3ncc(C)s3)n2)C1 [Example 34, (S)-3-(4-((2-((1-acryloylpiperidin-3-yl)amino)-6-((5-methylthiazol-2-yl)amino)pyridin-4-yl)methyl)piperazin-1-yl) propanenitrile] | 1.7 nM | 1.1 nM
5 | C=CC(=O)N1CCC[C@H](Nc2cc(-c3ccccc3)cc(Nc3ncc(C)s3)n2)C1 [Example 39, (S)-1-(3-((6-((5-methylthiazol-2-yl)amino)-4-phenylpyridin-2-yl)amino)piperidin-1-yl) prop-2-en-1-one] | 4.8 nM | 7.5 nM
6 | C=CC(=O)N1CC[C@H](Nc2nc(CN3CCOCC3)cc(Nc3ncc(C)s3)n2)C1 [Example 24, (S)-1-(3-((4-((5-methylthiazol-2-yl)amino)-6-(morpholinomethyl)pyrimidin-2-yl)amino)pyrrolidin-1-yl) prop-2-en-1-one] | 2.3 nM | 2.2 nM
7 | C=CC(=O)N1CCC[C@H](Nc2cc(CN3CCOCC3)cc(Nc3ncc(C)s3)n2)C1 [Example 5, (S)-1-(3-((6-((5-methylthiazol-2-yl)amino)-4-(morpholinomethyl)pyridin-2-yl)amino)piperidin-1-yl) prop-2-en-1-one] | > 200 nM | 152 nM
8 | C=CC(=O)N1CC2(CC(Nc3cc(CN4CCOCC4)cc(Nc4ncc(C)s4)n3)C2)C1 [Example 30, 1-(6-((6-((5-methylthiazol-2-yl)amino)-4-(morpholinomethyl)pyridin-2-yl)amino)-2-azaspiro[3.3]heptan-2-yl) prop-2-en-1-one] | 47 nM | 67.1 nM
9 | C=CC(=O)N1CCC(Oc2cc(CN3CCOCC3)cc(Nc3ncc(C)s3)n2)C1 (stereo not shown) [Example 10, 1-(3-((6-((5-methylthiazol-2-yl)amino)-4-(morpholinomethyl)pyridin-2-yl)oxy)pyrrolidin-1-yl) prop-2-en-1-one] | > 40 nM | 2.4 nM
10 | C=CC(=O)N1CCC[C@H](Nc2nc(CN3CCCCC3)cc(Nc3ncc(C)s3)n2)C1 [Example 31, (S)-1-(3-((4-((5-methylthiazol-2-yl)amino)-6-(piperidin-1-ylmethyl)pyrimidin-2-yl)amino)piperidin-1-yl) prop-2-en-1-one] | 15.6 nM | 8.8 nM
11 | C=CC(=O)N1CCC[C@H](Nc2cc(CN3CCN(CC)CC3)cc(Nc3ncc(C)s3)n2)C1 [Example 42, (S)-1-(3-((4-((4-ethylpiperazin-1-yl)methyl)-6-((5-methylthiazol-2-yl)amino)pyridin-2-yl)amino)piperidin-1-yl) prop-2-en-1-one] | 2.2 nM | 2.5 nM
12 | C=CC(=O)N1CCC[C@H](Nc2cc(CN3CCN(CCOC)CC3)cc(Nc3ncc(C)s3)n2)C1 [Example 22] | 1 nM | 1.2 nM
13 | C=CC(=O)N1CCC[C@H](Oc2cc(CN3CCOCC3)cc(Nc3ncc(C)s3)n2)C1 [Example 15, (S)-1-(3-((6-((5-methylthiazol-2-yl)amino)-4-(morpholinomethyl)pyridin-2-yl)oxy)piperidin-1-yl) prop-2-en-1-one] | 47.3 nM | 2.3 nM
14 | C=CC(=O)N1CCC[C@H](Nc2cc(CN3CCOCC3)cc(Nc3cc(Cl)[nH]n3)n2)C1 [Example 50, (S)-1-(3-(6-(5-chloro-1H-pyrazol-3-ylamino)-4-(morpholinomethyl)pyridin-2-ylamino)piperidin-1-yl) prop-2-en-1-one] | ~1000 nM | ~1000 nM
15 | C=CC(=O)N1CCC[C@H](Nc2cc(Cc3ccccn3)cc(Nc3ncc(C)s3)n2)C1 [Example 37, (S)-1-(3-((6-((5-methylthiazol-2-yl)amino)-4-(pyridin-2-ylmethyl)pyridin-2-yl)amino)piperidin-1-yl) prop-2-en-1-one] | 1.9 nM | 3.2 nM
16 | C=CC(=O)N1CCCC(Oc2cc(CN3CCOCC3)cc(Nc3ncc(C)s3)n2)C1 (stereo not shown) [Example 12, 1-(3-((6-((5-methylthiazol-2-yl)amino)-4-(morpholinomethyl)pyridin-2-yl)oxy)piperidin-1-yl) prop-2-en-1-one] | 2 nM | 2 nM
17 | C=CC(=O)N1CCC[C@H](Nc2cc(CN3CCOCC3)cc(Nc3ncccn3)n2)C1 [Example 54, (S)-1-(3-(4-(morpholinomethyl)-6-(pyrimidin-2-ylamino)pyridin-2-ylamino)piperidin-1-yl) prop-2-en-1-one] | ~1000 nM | ~1000 nM
18 | C=CC(=O)N1CC[C@@H](Nc2cc(CN3CCOCC3)cc(Nc3ncc(C)s3)n2)C1 [Example 6, (R)-1-(3-((6-((5-methylthiazol-2-yl)amino)-4-(morpholinomethyl)pyridin-2-yl)amino)pyrrolidin-1-yl) prop-2-en-1-one] | 36 nM | 27.7 nM
19 | C=CC(=O)N1CCC[C@@H](Oc2cc(CN3CCOCC3)cc(Nc3ncc(C)s3)n2)C1 [Example 16, (R)-1-(3-((6-((5-methylthiazol-2-yl)amino)-4-(morpholinomethyl)pyridin-2-yl)oxy)piperidin-1-yl) prop-2-en-1-one] | > 1000 nM | 1.1 nM
20 | C=CC(=O)N1CCC(Oc2cc(CN3CCOCC3)cc(Nc3ncc(C)s3)n2)CC1 [Example 11, 1-(4-((6-((5-methylthiazol-2-yl)amino)-4-(morpholinomethyl)pyridin-2-yl)oxy)piperidin-1-yl) prop-2-en-1-one] | 7.8 nM | 8.5 nM
21 | C=CC(=O)N1CCC[C@H](N(C)c2cc(CN3CCOCC3)cc(Nc3ncc(C)s3)n2)C1 [Example 26, (S)-1-(3-(methyl (6-((5-methylthiazol-2-yl)amino)-4-(morpholinomethyl)pyridin-2-yl)amino)piperidin-1-yl) prop-2-en-1-one] | 17.7 nM | 2.2 nM
22 | C=CC(=O)N1CCC[C@@H](Nc2cc(CN3CCOCC3)cc(Nc3ncc(C)s3)n2)C1 [Example 4, (R)-1-(3-((6-((5-methylthiazol-2-yl)amino)-4-(morpholinomethyl)pyridin-2-yl)amino)piperidin-1-yl) prop-2-en-1-one] | 1.6 nM | 0.4 nM
23 | CC#CC(=O)N1CCC[C@H](Nc2cc(OC3CCN(C)CC3)cc(Nc3ncc(C)s3)n2)C1 [Example 41, (S)-1-(3-((4-((1-methylpiperidin-4-yl)oxy)-6-((5-methylthiazol-2-yl)amino)pyridin-2-yl)amino)piperidin-1-yl) but-2-yn-1-one] | 128 nM | 9.5 nM
